Results on one compound are retold here after patent US20180256509A1, “Nanoparticle Compositions and Methods Thereof to Restore Vascular Integrity” (priority 2014, published 2018).

The test system of the experiment is C57BL mice infused with LPS. In words: Endotoxemia study: vascular permeability (intravascular-extravascular intensity). It is filed as in vivo. The conditions noted are these: 2 hours after LPS infusion; 10 mg/kg; FIG. 10. How it is done:
In this study, the effect of treatment with curcumin-selenium nanoparticles was evaluated in animal models with endotoxemia. In particular, C57BL mice were first infused with 10 mg/kg of LPS (Lipopolysaccharides from E. coli serotype 0128:B12, Sigma Aldrich St. Louis, Mo.). The mice were then separated into 5 treatment groups: 1) no treatment; 2) control NP 10 mg/kg; 3) curcumin 10 mg/kg; 4) curcumin-NP 10 mg/kg (dose calculated based on curcumin concentration); and 5) curcumin-selenium-NP 10 mg/kg (dose calculated based on curcumin concentration). Treatments were administered 30 minutes after LPS infusion. No additional fluid therapies were applied, and food and water was available during observation time points. […] Vascular integrity for all treatment groups was also evaluated at baseline and 2 hours after LPS infusion. Additionally, other end points related to systemic and microvascular function (i.e., heart rate, arteriolar diameter, arteriolar blood flow, and functional capillary density) were evaluated for 4 of the treatment groups (no treatment, control NP 10, curcumin-NP 10 mg/kg, and curcumin-selenium-NP 10 mg/kg treatment groups) at baseline, and 2, 4, 6, 12, and 24 hours after LPS infusion.

Molecules are shown by their SMILES.

On to `COc1cc(/C=C/C(=O)CC(=O)/C=C/c2ccc(O)c(OC)c2)ccc1O` [curcumin], for which the “vascular permeability compared with the untreated and control NP treatment groups” value is listed as “markedly less vascular permeability”.
